Assay results as given in patent US20210038577A1, “THIOREDOXIN REDUCTASE INHIBITORS FOR USE IN THE TREATMENT OF CANCER” (Cinda Pharma AB, priority 2018, published 2021).

Tests used:
[1] = tested on: 4T1-luc2 murine tumor cells; assay: 4T1-luc2 tumors in mammary fat pad of immunocompetent BALB/c mice; assay type: in vivo; conditions: 5 mg/kg 5/2 for 15 days, bioluminescence
Experimental: Female BALB/c immunocompetent mice were implanted with 1×10^5 4T1-luc2 murine tumor cells into the mammary fat pad. Upon growth of the tumors between 60-90 mm^3 the animals were selected for imaging. Mice were randomized and enrolled for treatment based on imaging flux values. Mice were treated once daily with 5 mg/kg of either OT-1096 or vehicle control using a 5/2 (five days on, two days off) dosing protocol. Upon days 1, 8, and 15 whole body imaging was performed on the mice to follow tumor cell luminescence. Analysis consists of primary tumor luminescence in mice. Each mouse was normalized to its own baseline luminescence from day 1. […] Data is represented as mean±SEM. Statistical significance (p<0.05) was determined using a Mann-Whitney test. The relative luminescence flux for mice treated with OT-1096 was significant compared to vehicle at day 15.
Athymic nude mice were inoculated orthotopically with 5×10^6 MDA-MB-231 breast cancer cells into the mammary fat pad, and randomized for treatment when tumors reached an average volume of 80-120 mm^3 (N=12 in each group). […] Xenograft tumor volume was assessed using caliper measurements for 25 days. […] Xenograft tumor volume was assessed using caliper measurements for 25 days. […] Statistical significance (p<0.05) was determined using a Two-way repeated measures ANOVA with Sidak's multiple comparison test. […]

[2] = tested on: Tregs in TM00098 patient-derived xenografts; assay: Tumor infiltrated Treg levels by flow cytometry, TM00098 PDX in Hu-CD34-NSG mice; assay type: in vivo; conditions: day 41, both donors, versus vehicle / other treatment
Experimental: Female NSG mice were implanted with human CD34+ hematopoietic stem cells from multiple donors and the level of human CD45+ cells were measured in the peripheral blood 12 weeks post engraftment. Mice with >25% human CD45+ cells in the peripheral blood were determined to have a humanized immune system (Hu-CD34-NSG™) mice and were enrolled into the study. The Hu-CD34-NSG mice were implanted with TM00098 patient-derived xenografts (PDX) subcutaneously on the right flank. The TM00098 PDX cancer cells originate from a primary tumor of a patient suffering from a grade 3 TNBC invasive ductal carcinoma. […] Tumor volume was measured using a digital caliper two times a week for the duration of the study. […] Cell populations was determined by electronic gating (P1=total leukocytes) on the basis of forward versus side scatter. […] The percentage of Tregs of CD45+ cells were calculated. […] Statistical significance (p<0.05) was determined using a Mann-Whitney test.

SMILES: CCCCCCCCS(=O)(=O)c1nc(OC)ccc1[N+](=O)[O-] [OT-1096, 6-methoxy-3-nitro-2-(octylsulfonyl)pyridine]
- % TGI [1]: 54%
- levels of tumor infiltrated Tregs (% Tregs of CD45+ cells) [2]: decreased
